This note sets out measurements from article PMC11742080, “Decavanadate Compound Displays In Vitro and In Vivo Antitumor Effect on Melanoma Models” (Bioinorganic Chemistry and Applications, 2025).

Assay [1] has as its system HaCaT normal human keratinocytes. Nature of the assay: MTT cell viability assay, HaCaT. Format: cell-based. Here is the method:
(§1) The MTT assay was first described as a sensitive, quantitative, and reliable colorimetric assay to measure the viability, proliferation, and activation of cells. Cell viability was assessed at 24 and 72 h of treatment to evaluate cytotoxicity and the effect on cell proliferation of the decavanadate compound, respectively. The concentrations of the decavanadate compound have been determined by weighing the compound in its crystal form and then solubilizing it in distilled water.
(§2) All cell lines were seeded in 96-well plates (Nunc, Roskilde, Denmark) at a density of 10^4 cells per well and were incubated overnight, before treatment with different concentrations of the decavanadate compound. After 24 or 72 h of treatment, fresh media solution containing MTT at 0.5 mg/mL was added to cells and incubated for 3 h at 37°C. The formed formazan crystals were then dissolved in DMSO, and the absorbance was measured at 560 nm using a BioTek EON Microplate Spectrophotometer (Fisher Scientific). Cell viability was expressed as a percentage of the viable cell number of the untreated cells (control [CTR]).
(§3) The concentration of the decavanadate compound required for 50% growth inhibition (IC50 value) was estimated as resulting in a 50% decrease in absorbance, compared to the CTR.

In assay [2] the test system is B16-F10 murine melanoma cells. Nature of the assay: MTT cell viability assay, B16-F10. Format: cell-based. Here is the method: as §1, §2, §3
For assay [3], the system named is DMBA/croton oil-induced skin lesions in Swiss albino mice. Nature of the assay: Chemical-induced (DMBA/croton oil) lesion model in mice. Format: in vivo. Conditions: cotreatment, 2.5 mg/kg s.c. Here is the method:
Two days before the beginning of the experiment, we selected 32 male Swiss albino mice and clipped the hair on their backs in a 2 × 2 cm^2 area. The design of the experiment was performed as reported by Vähätupa et al. (Figure S1). The animals were randomly divided into […] (8 animals in each group): • i. CTR− group: represented the negative CTR group, where mice received 100 μL of acetone only. • ii. CTR+ group: served as the positive CTR group, where mice were treated […] with a single dose of DMBA (50 μg/100 μL acetone) on the shaven area on their backs. Seven days later, croton oil (50 μL/100 μL acetone) was applied twice a week until the end of the experiment (6 weeks). • iii. CT group (cotreatment group): animals received a single dose of DMBA (50 μg/100 μL acetone) on the shaven area on their backs. Seven days later, croton oil (50 μL/100 μL acetone) was applied twice. Then, mice received croton oil and 2.5 mg/kg of the decavanadate compound (dissolved in PBS) by subcutaneous injection on their backs. The Mg2Na2V10O28·20H2O compound was given to animals 15 min after each croton oil application from the third week until the sixth week (the end of the protocol).

The subject of assay [4] is SKMEL28 human melanoma cells. In words: MTT cell viability assay, SKMEL28. Format: cell-based. Here is the method:
as §1, §2, §3

In assay [5] the test system is B16-F10 allografted C57BL/6 mice. Nature of the assay: B16-F10 melanoma allograft model in mice. Format: in vivo. Here is the method: The syngeneic transplantation model of melanoma, developed in this study, has been widely used for preclinical testing and offers the advantages of relative ease of use, fast turnaround time, and low cost. A total of 30 male C57BL/6 strain mice were previously adapted to animal facility conditions. The design of the experiment was performed as represented in Figure S2. At the start of the experiment, the backs of the mice were shaved. The mice were divided into four groups: • i. CTR− group: negative CTR group containing 6 mice. This group was injected with a solution of PBS by the subcutaneous route in the dorsal region. • ii. CTR+ group: positive CTR group containing 8 mice. In this group, the mice were subcutaneously injected once with 10^5 B16-F10 cells in the dorsal region at the beginning of the experiment. Four mice were sacrificed after 21 days, and the other 4 mice were sacrificed at the end of the experiment after 31 days. • iii. Cotreatment (CT) group: CT group containing 8 mice. This group was subcutaneously injected with 10^5 B16-F10 cells in the dorsal region and injected simultaneously with 2.5 mg/kg of decavanadate (Mg2Na2V10O28·20H2O), subcutaneously for 21 days of the experiment. All the mice were sacrificed after 21 days. • iv. Post-treatment (PT) group: PT group containing 8 mice. This group was subcutaneously injected with 10^5 B16-F10 cells in the dorsal region. After 21 days, each mouse of this group received a dose of 2.5 mg/kg of decavanadate (Mg2Na2V10O28·20H2O), as a treatment for 10 days. For this group, animals were sacrificed on the 31st day. The experimental design scheme is illustrated in Figure S2.

On to “dimagnesium disodium decavanadate icosahydrate [Mg2Na2V10O28·20H2O]”, for which the “Effect on viability of normal keratinocytes” value in assay [1] (24 h treatment) is on record as “little effect”. The IC50 (as a rule, the point on the concentration scale where inhibition reaches its midpoint) was > 70.8 µM in assay [1] (24 h treatment, MTT); 8.9 µM in assay [1] (72 h treatment, MTT); 7.3 µM in assay [2] (B16-F10, 24 h treatment); 2.8 µM in assay [2] (B16-F10, 72 h treatment); 10.8 µM in assay [4] (SKMEL28, 24 h treatment); 4.1 µM in assay [4] (SKMEL28, 72 h treatment). The “IC50, cell viability” value in assay [1] (72 h treatment, MTT) stood at 12.7 µg/mL. Moreover, the “Skin histology (dermal inflammatory infiltrate)” value in assay [3] was “attenuation of this inflammatory state”. Besides, the “Mortality and behavior in DMBA/croton oil-treated mice” value in assay [3] (6-week protocol) is “neither mortality nor changes in the behavior”. The “Inhibition of tumor development” value in assay [5] (2.5 mg/kg (50 μg), versus nontreated allografted mice) is on record as 70%. For the same substance, in assay [5] (cotreated, 2.5 mg/kg, compared to CTR− group), the “Behavior of allografted mice” value is on record as “no change in the behavior”. In addition, in assay [5] (cotreatment (CT) group, 2.5 mg/kg s.c. for 21 days), the “Tumor appearance at day 21” value is on record as “no skin changes”. Also, the “Skin histology, cotreated mice” value in assay [5] (cotreatment (CT) group, 2.5 mg/kg, day 21) is reported as “disappearance of melanoma”. Moreover, the “Average size of the tumor” value in assay [5] (post-treatment (PT) group, 2.5 mg/kg for 10 days from day 21, day 31) came out at 8.2 mm. Further, the “Skin histology, post-treated mice” value in assay [5] (post-treatment (PT) group, 2.5 mg/kg, day 31) is “appearance of dermal melanoma associated with invasive nests of atypical discohesive melanocytes and dusty pigmentation”.
